Tests used:
[1] = system: splenocytes of DR0401-IE mice; test: 3H-thymidine proliferation recall assay of splenocytes from immunized mice; type: cell-based, mouse
DR0401-IE mice = settings: mouse, in vivo

cit-vim59-71: shorter citrullinated vimentin peptide, aa 59-71 (GVYATRSSAVRLR; citrullinated; UniProt P08670 59-71, looked up, fragment)
proliferative recall response at 13 weeks ([1]; immunized DR0401-IE mice harvested at week 13 (supplemental fig. 1)): strong proliferative recall response
immunodominant region in in vitro restimulation ([1]; mice immunized with cit-vim59-78, challenge with short peptides at 5 μg/ml, n=13): immunologically dominant region
mice developing signs of ankle swelling or polyarthritis (DR0401-IE mice): none

— article PMC3174345 (Arthritis and rheumatism, 2011)
